Values of other authors as cited in patent US20240261272A1, “LPA1 ANTAGONISTS FOR TREATING INTERSTITIAL LUNG DISEASE” (Bristol-Myers Squibb Company, priority 2022, published 2024).

Key:
patients with IPF = conditions: cited from earlier work
patients with PPF = conditions: 52-week study period; cited from earlier work

Row | Structure (SMILES) | decline in lung function (in words) (patients with IPF) | progression of lung fibrosis, annual rate of decline in FVC versus placebo (in words) (patients with PPF)
1 | COC(=O)c1ccc2c(c1)NC(=O)/C2=C(\Nc1ccc(N(C)C(=O)CN2CCN(C)CC2)cc1)c1ccccc1 [nintedanib] | significantly reduce the decline in lung function | slower progression of lung fibrosis than those who received placebo
2 | Cc1ccc(=O)n(-c2ccccc2)c1 [pirfenidone] | significantly reduce the decline in lung function | –
